Assays:
Acinetobacter baumannii [1] = test: Synergistic antibacterial activity against Acinetobacter baumannii NCTC 13301 producing OXA-23/51 infected in sc dosed Swiss albino mouse assessed as cefepime MIC at 8 ug/ml administered 1 hr post infection and measured upto 7 days; format: functional; settings: NCTC 13301, 168 h, dose 8 µg/ml, time <= 7 day
Acinetobacter baumannii [2] = test: Synergistic antibacterial activity against Acinetobacter baumannii NCTC 13303 producing OXA-26/51 infected in sc dosed Swiss albino mouse assessed as colistin MIC at 8 ug/ml administered […] post infection and measured upto 7 days; format: functional; settings: NCTC 13303, 168 h, dose 8 µg/ml, time <= 7 day

For `N#C[C@@H]1CC[C@@H]2CN1C(=O)N2OS(=O)(=O)[O-].[Na+]`, the MIC (Acinetobacter baumannii [1]) was greater than 256 µg/mL and the MIC (Acinetobacter baumannii [2]) was 0.5 µg/mL.
